In assay [1] the target is HCoV-229E 3CLpro (Human coronavirus 229E, UniProt P0C6X1). In words: HCoV-229E 3CLpro inhibition assay (FRET). Type of assay: biochemical.
Assay [2] addresses SARS-CoV-2 3CLpro (Severe acute respiratory syndrome coronavirus 2, UniProt P0DTD1). In words: biochemical.
Assay [3] addresses SARS-CoV 3CLpro (Severe acute respiratory syndrome coronavirus, UniProt P0C6X7). Briefly: biochemical.
The target of assay [4] is MERS-CoV 3CLpro (Middle East respiratory syndrome-related coronavirus, UniProt K9N7C7). Briefly: biochemical.
Sequence of MERS-CoV 3CLpro (K9N7C7 3248-3553): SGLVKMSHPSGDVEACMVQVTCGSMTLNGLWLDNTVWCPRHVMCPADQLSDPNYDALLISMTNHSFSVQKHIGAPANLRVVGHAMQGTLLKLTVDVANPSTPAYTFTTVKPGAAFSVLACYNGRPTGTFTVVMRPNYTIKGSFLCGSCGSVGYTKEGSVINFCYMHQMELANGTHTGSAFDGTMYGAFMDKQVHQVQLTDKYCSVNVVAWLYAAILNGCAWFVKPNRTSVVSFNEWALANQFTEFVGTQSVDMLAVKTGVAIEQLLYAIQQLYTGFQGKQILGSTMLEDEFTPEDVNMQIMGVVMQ

Sequence of HCoV-229E 3CLpro (P0C6X1 2966-3267): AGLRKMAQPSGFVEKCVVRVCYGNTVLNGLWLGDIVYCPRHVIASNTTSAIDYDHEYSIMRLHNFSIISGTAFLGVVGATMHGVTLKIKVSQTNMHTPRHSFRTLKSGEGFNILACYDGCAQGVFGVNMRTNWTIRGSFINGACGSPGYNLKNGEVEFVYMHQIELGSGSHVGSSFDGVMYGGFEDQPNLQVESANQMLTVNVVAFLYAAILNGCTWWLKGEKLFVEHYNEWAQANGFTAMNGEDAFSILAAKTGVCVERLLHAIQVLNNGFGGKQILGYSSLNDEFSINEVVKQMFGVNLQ

For `CC(C)(C)[C@H](NC(=O)[C@@H]1CC1(F)F)C(=O)N1C[C@H](C(F)(F)F)C[C@H]1C(=O)NN(C[C@@H]1CCNC1=O)C(=O)[C@H](F)Cl` [Example 158, (1S)—N-[(1S)-1-[(2S,4R)-2-[[[(2R)-2-chloro-2-fluoro-acetyl]-[[(3S)-2-oxopyrrolidin-3-yl]methyl]amino]carbamoyl]-4-(trifluoromethyl)pyrrolidine-1-carbonyl]-2,2-dimethyl-propyl]-2,2-difluoro-cyclopropanecarboxamide], the IC50 in assay [1] stood at 34 nM; in assay [2], 11 nM; in assay [3], 17 nM; in assay [4] it was 80 nM.
The corresponding values for `CC(C)(C)[C@H](NC(=O)[C@@H]1CC1(F)F)C(=O)N1C[C@H](C(F)(F)F)C[C@H]1C(=O)NN(C[C@@H]1CCNC1=O)C(=O)[C@@H](F)Cl` [Example 159, (1S)—N-[(1S)-1-[(2S,4R)-2-[[[(2S)-2-chloro-2-fluoro-acetyl]-[[(3S)-2-oxopyrrolidin-3-yl]methyl]amino]carbamoyl]-4-(trifluoromethyl)pyrrolidine-1-carbonyl]-2,2-dimethyl-propyl]-2,2-difluoro-cyclopropanecarboxamide] are 40 nM, 13 nM, 13 nM and 103 nM.
The matching figures for `CC[C@H](C)[C@H](NC(=O)C1(F)CC1)C(=O)N1C[C@H](C(F)(F)F)C[C@H]1C(=O)NN(C[C@@H]1CCNC1=O)C(=O)[C@H](F)Cl` [Example 160, N-[(1S,2S)-1-[(2S,4R)-2-[[[(2R)-2-chloro-2-fluoro-acetyl]-[[(3S)-2-oxopyrrolidin-3-yl]methyl]amino]carbamoyl]-4-(trifluoromethyl)pyrrolidine-1-carbonyl]-2-methyl-butyl]-1-fluoro-cyclopropanecarboxamide]: 24 nM, 13 nM, 19 nM and 105 nM.
For `CC[C@H](C)[C@H](NC(=O)C1(F)CC1)C(=O)N1C[C@H](C(F)(F)F)C[C@H]1C(=O)NN(C[C@@H]1CCNC1=O)C(=O)[C@@H](F)Cl` [Example 161, N-[(1S,2S)-1-[(2S,4R)-2-[[[(2S)-2-chloro-2-fluoro-acetyl]-[[(3S)-2-oxopyrrolidin-3-yl]methyl]amino]carbamoyl]-4-(trifluoromethyl)pyrrolidine-1-carbonyl]-2-methyl-butyl]-1-fluoro-cyclopropanecarboxamide], the IC50 in assay [1] came out at 99 nM; in assay [2], 16 nM; in assay [3], 27 nM; in assay [4], 336 nM.
The matching figures for `CC(C)(C)C[C@H](NC(=O)C1(F)CC1)C(=O)N1C[C@H]2[C@@H]([C@H]1C(=O)NN(C[C@@H]1CCNC1=O)C(=O)[C@H](F)Cl)C2(C)C` [Example 162, N-[(1S)-1-[(1R,2S,5S)-2-[[[(2R)-2-chloro-2-fluoro-acetyl]-[[(3S)-2-oxopyrrolidin-3-yl]methyl]amino]carbamoyl]-6,6-dimethyl-3-azabicyclo[3.1.0]hexane-3-carbonyl]-3,3-dimethyl-butyl]-1-fluoro-cyclopropanecarboxamide]: 33 nM, 12 nM, 15 nM and 94 nM.
The corresponding values for `CC(C)(C)[C@H](NC(=O)C(F)(F)F)C(=O)N1C[C@@H]2CCC[C@@H]2[C@H]1C(=O)NN(C[C@@H]1CCCNC1=O)C(=O)[C@H](F)Cl` [Example 164a, N-[(1S)-1-[(3S,3aS,6aR)-3-[[[(2R)-2-chloro-2-fluoro-acetyl]-[[(3S)-2-oxo-3-piperidyl]methyl]amino]carbamoyl]-3,3a,4,5,6,6a-hexahydro-1H-cyclopenta[c]pyrrole-2-carbonyl]-2,2-dimethyl-propyl]-2,2,2-trifluoro-acetamide] are 98 nM, 8 nM, 16 nM and 243 nM.
Take `CC[C@H](C)[C@H](NC(=O)C1(F)CC1)C(=O)N1C[C@H]2[C@@H]([C@H]1C(=O)NN(C[C@@H]1CCCNC1=O)C(=O)[C@H](F)Cl)C2(C)C` [Example 166a, N-[(1S,2S)-1-[(1R,2S,5S)-2-[[[(2R)-2-chloro-2-fluoro-acetyl]-[[(3S)-2-oxo-3-piperidyl]methyl]amino]carbamoyl]-6,6-dimethyl-3-azabicyclo[3.1.0]hexane-3-carbonyl]-2-methyl-butyl]-1-fluoro-cyclopropanecarboxamide]: the IC50 came to 47 nM in assay [1], 13 nM in assay [2], 18 nM in assay [3] and 229 nM in assay [4].
As to `CC[C@H](C)[C@H](NC(=O)C1(F)CC1)C(=O)N1C[C@H]2[C@@H]([C@H]1C(=O)NN(C[C@H]1CCCNC1=O)C(=O)[C@H](F)Cl)C2(C)C` [Example 166b, N-[(1S,2S)-1-[(1R,2S,5S)-2-[[[(2R)-2-chloro-2-fluoro-acetyl]-[[(3R)-2-oxo-3-piperidyl]methyl]amino]carbamoyl]-6,6-dimethyl-3-azabicyclo[3.1.0]hexane-3-carbonyl]-2-methyl-butyl]-1-fluoro-cyclopropanecarboxamide], the IC50 in assay [1] was found to be 51 nM; in assay [2], 19 nM; in assay [3] it was 30 nM; in assay [4] it was 239 nM.
Regarding `CCC(C)(C)[C@H](NC(=O)C1CC1)C(=O)N1C[C@@H]2CCC[C@@H]2[C@H]1C(=O)NN(C[C@@H]1CCCNC1=O)C(=O)[C@H](F)Cl` [Example 167a, N-[(1S)-1-[(3S,3aS,6aR)-3-[[[(2R)-2-chloro-2-fluoro-acetyl]-[[(3S)-2-oxo-3-piperidyl]methyl]amino]carbamoyl]-3,3a,4,5,6,6a-hexahydro-1H-cyclopenta[c]pyrrole-2-carbonyl]-2,2-dimethyl-butyl]cyclopropanecarboxamide], the IC50 in assay [1] is 53 nM; in assay [2], 10 nM; in assay [3] it was 15 nM; in assay [4], 169 nM.
As to `CCC(C)(C)[C@H](NC(=O)C1CC1)C(=O)N1C[C@@H]2CCC[C@@H]2[C@H]1C(=O)NN(C[C@H]1CCCNC1=O)C(=O)[C@H](F)Cl` [Example 167b, N-[(1S)-1-[(3S,3aS,6aR)-3-[[[(2R)-2-chloro-2-fluoro-acetyl]-[[(3R)-2-oxo-3-piperidyl]methyl]amino]carbamoyl]-3,3a,4,5,6,6a-hexahydro-1H-cyclopenta[c]pyrrole-2-carbonyl]-2,2-dimethyl-butyl]cyclopropanecarboxamide], the IC50 in assay [1] turned out to be 210 nM; in assay [2] it was 19 nM; in assay [3], 41 nM; in assay [4] it was 1630 nM.
The corresponding values for `CCC(C)(C)[C@H](NC(=O)C1CC1)C(=O)N1CC(C)(C)C[C@H]1C(=O)NN(C[C@@H]1CCCNC1=O)C(=O)[C@H](F)Cl` [Example 168a, N-[(1S)-1-[(2S)-2-[[[(2R)-2-chloro-2-fluoro-acetyl]-[[(3S)-2-oxo-3-piperidyl]methyl]amino]carbamoyl]-4,4-dimethyl-pyrrolidine-1-carbonyl]-2,2-dimethyl-butyl]cyclopropanecarboxamide] are 104 nM, 11 nM, 16 nM and 290 nM.
The corresponding values for `CCC(C)(C)[C@H](NC(=O)C1CC1)C(=O)N1CC(C)(C)C[C@H]1C(=O)NN(C[C@H]1CCCNC1=O)C(=O)[C@H](F)Cl` [Example 168b, N-[(1S)-1-[(2S)-2-[[[(2R)-2-chloro-2-fluoro-acetyl]-[[(3R)-2-oxo-3-piperidyl]methyl]amino]carbamoyl]-4,4-dimethyl-pyrrolidine-1-carbonyl]-2,2-dimethyl-butyl]cyclopropanecarboxamide] are 219 nM, 100 nM, 185 nM and 2110 nM.
Take `CCC(C)(C)[C@H](NC(=O)C1CC1)C(=O)N1C[C@H]2[C@@H]([C@H]1C(=O)NN(C[C@@H]1CCCNC1=O)C(=O)[C@H](F)Cl)C2(C)C` [Example 169a, N-[(1S)-1-[(1R,2S,5S)-2-[[[(2R)-2-chloro-2-fluoro-acetyl]-[[(3S)-2-oxo-3-piperidyl]methyl]amino]carbamoyl]-6,6-dimethyl-3-azabicyclo[3.1.0]hexane-3-carbonyl]-2,2-dimethyl-butyl]cyclopropanecarboxamide]: the IC50 in assay [1] was 56 nM; in assay [2], 9 nM; in assay [3], 20 nM; in assay [4], 118 nM.
Regarding `CC[C@H](C)[C@H](NC(=O)C1(F)CC1)C(=O)N1C[C@@H]2CCC[C@@H]2[C@H]1C(=O)NN(C[C@@H]1CCCNC1=O)C(=O)[C@H](F)Cl` [Example 170a, N-[(1S,2S)-1-[(3S,3aS,6aR)-3-[[[(2R)-2-chloro-2-fluoro-acetyl]-[[(3S)-2-oxo-3-piperidyl]methyl]amino]carbamoyl]-3,3a,4,5,6,6a-hexahydro-1H-cyclopenta[c]pyrrole-2-carbonyl]-2-methyl-butyl]-1-fluoro-cyclopropanecarboxamide], the IC50 was 107 nM in assay [1], 16 nM in assay [2], 25 nM in assay [3] and 276 nM in assay [4].
Take `CCC(CC)[C@H](NC(=O)C1CC1)C(=O)N1C[C@@H]2CCC[C@@H]2[C@H]1C(=O)NN(C[C@@H]1CCCNC1=O)C(=O)[C@H](F)Cl` [Example 171a, N-[(1S)-1-[(3S,3aS,6aR)-3-[[[(2R)-2-chloro-2-fluoro-acetyl]-[[(3S)-2-oxo-3-piperidyl]methyl]amino]carbamoyl]-3,3a,4,5,6,6a-hexahydro-1H-cyclopenta[c]pyrrole-2-carbonyl]-2-ethyl-butyl]cyclopropanecarboxamide]: the IC50 in assay [1] amounted to 94 nM; in assay [2], 8 nM; in assay [3], 17 nM; in assay [4] it was 130 nM.
